# Assay results reported in patent US5908846A (priority 1993, dated 1999).
# Assays:
# [1] = In vitro skin permeation (diffusion) study, open Franz diffusion cells, whole abdominal human skin; conditions: for Flux, IPM: steady state, IPM solution not saturated, human skin
# physchem = experiment: physchem
# Description: (§1) The experimental methods used for these determinations are described below.
# The mixtures were placed in an ultrasonic bath for 10 min and then rotated on a mechanical spindle for 24 h and filtered. After rotation for 1 h the pH of the phosphate buffer mixtures was adjusted to 7.0. An aliquot of the filtrates was diluted with water or acetonitrile and analyzed by HPLC.
# in vitro = conditions: human
# [2] = Apparent partition coefficient (P) between octanol and pH 7.4 aqueous buffer at 21° C.; conditions: octanol / phosphate buffer
# Description: as §1
# The concentration of the compounds in the aqueous phase before and after partitioning was determined by HPLC analysis, and the partition coefficients determined.
# [3] = pH 7
# [4] = isopropyl myristate, organic solvent or mixture
# [5] = phosphate buffer, pH 7, aqueous buffer
Compound,"Flux, IPM ([1]; 200 mg/ml) [μg/cm^2 /h]",solubility at 24 h (physchem; [4]) [mg/mL],solubility at 24 h (physchem; [5]) [mg/mL],Papp (in vitro) [nm/s],Papp (in vitro; pH 7) [nm/s],logD [2],"Flux, Buffer [3] [μg/cm^2 /h]",Amount penetrated present in the receptor phase as the 6-monoester ([1]; receptor phase composition after human skin permeation) [%],"Flux, IPM ([1]; 125 mg/ml) [μg/cm^2 /h]"
3-Butoxy-morphlne,8.3 ± 2.2,–,–,–,–,–,–,–,–
"CCCCCC(=O)Oc1ccc2c3c1O[C@H]1[C@@H](OC(=O)CCCCC)C=C[C@H]4[C@@H](C2)N(C)CC[C@@]341 [3,6-Dihexanoyl-morphine, 3,6-dihexanoyl morphine]",11.7 ± 1.2,> 200,0.02,> 0.444,389,> 4,1.7 ± 0.2,–,–
"CC(C)C(=O)Oc1ccc2c3c1O[C@H]1[C@@H](OC(=O)C(C)C)C=C[C@H]4[C@@H](C2)N(C)CC[C@@]341 [3,6-Diisobutyryl-morphine, 3,6-diisobutyryl morphine]",–,80,0.6,–,–,2.6,–,–,–
"CCC(=O)Oc1ccc2c3c1O[C@H]1[C@@H](OC(=O)CC)C=C[C@H]4[C@@H](C2)N(C)CC[C@@]341 [3,6-Dipropionyl-morphine, 3,6-dipropionyl morphine]",–,41,3.6,–,2.78,1.66,2.5 ± 0.5,~50,–
CC(=O)Oc1ccc2c3c1O[C@H]1[C@@H](O)C=C[C@H]4[C@@H](C2)N(C)CC[C@@]341 [3-Acetyl-morphine],11.4 ± 1.8,–,–,–,–,–,–,–,–
"CCCCCC(=O)Oc1ccc2c3c1O[C@H]1[C@@H](O)C=C[C@H]4[C@@H](C2)N(C)CC[C@@]341 [3-Hexanoyl-morphine, 3-hexanoyl morphine]",–,> 150,2.6,> 0.667,36.1,2.04,25.3 ± 4.2,–,35.6 ± 12.0
CC(C)C(=O)Oc1ccc2c3c1O[C@H]1[C@@H](O)C=C[C@H]4[C@@H](C2)N(C)CC[C@@]341 [3-Isobutyryl-morphine],27.0 ± 3.3,–,–,–,–,–,–,–,–
"CCC(=O)Oc1ccc2c3c1O[C@H]1[C@@H](O)C=C[C@H]4[C@@H](C2)N(C)CC[C@@]341 [3-Propionyl-morphine, 3-propionyl morphine]",–,79,21,–,–,0.66,–,–,–
CCCCC(=O)Oc1ccc2c3c1O[C@H]1[C@@H](O)C=C[C@H]4[C@@H](C2)N(C)CC[C@@]341 [3-Valeryl-morphine],16.5 ± 2.7,–,–,–,–,–,–,–,–
